Results as given in the Deep4Chem optical property database.

Assay: photoluminescence quantum yield (fraction); solvent given as SMILES
[1] = in O=P(c1ccccc1)(c1ccccc1)c1ccccc1Oc1ccccc1P(=O)(c1ccccc1)c1ccccc1

CCN(CC)c1ccc2cc(/C=C/C(=O)c3cc4ccc(N(CC)CC)cc4oc3=O)c(=O)oc2c1
photoluminescence quantum yield (in C1CCOC1): 0.53
photoluminescence quantum yield (in C1COCCO1): 0.58
photoluminescence quantum yield (in CC#N): 0.11
photoluminescence quantum yield (in CC(C)=O): 0.27
photoluminescence quantum yield (in CCO): 0.07
photoluminescence quantum yield (in CCOC(C)=O): 0.57
photoluminescence quantum yield (in CN(C)C=O): 0.01
photoluminescence quantum yield (in CS(C)=O): 0.06
photoluminescence quantum yield (in Cc1ccccc1): 0.68
photoluminescence quantum yield (in ClC(Cl)Cl): 0.5
photoluminescence quantum yield (in ClCCl): 0.59
photoluminescence quantum yield (in O): 0

Cc1ccc2c(c1)c1cc(C)ccc1n2-c1cccc(-n2c3ccc(C)cc3c3cc(C)ccc32)c1C#N
photoluminescence quantum yield (in Cc1ccccc1): 0.34
photoluminescence quantum yield [1]: 0.66

N#Cc1ccc(C2=CC3=c4cc(-c5ccc(C#N)cc5)c5nc(C(F)(F)C(F)(F)C(F)(F)F)nc6c(-c7ccc(C#N)cc7)cc(c4c65)C4=CC(c5ccc(C#N)cc5)=C5N=C(C(F)(F)C(F)(F)C(F)(F)F)N=C2C5C43)cc1 (stereo not given)
photoluminescence quantum yield (in C1CCOC1): 1

CN(c1ccccc1)c1ccc(/C=C2\C(=O)c3ccccc3S2(=O)=O)cc1
photoluminescence quantum yield (in C1CCOC1): 0.003
photoluminescence quantum yield (in C1COCCO1): 0.012
photoluminescence quantum yield (in CC#N): 0.002
photoluminescence quantum yield (in CC(C)=O): 0.001
photoluminescence quantum yield (in CCOC(C)=O): 0.003
photoluminescence quantum yield (in CN(C)C=O): 0.003
photoluminescence quantum yield (in CO): 0.012
photoluminescence quantum yield (in CS(C)=O): 0.018
photoluminescence quantum yield (in Cc1ccccc1): 0.103
photoluminescence quantum yield (in ClC(Cl)Cl): 0.008
photoluminescence quantum yield (in ClCCl): 0.004

CCN(CC)c1ccc2cc(C#N)c(=O)oc2c1
photoluminescence quantum yield (in ClCCl): 0.82

CC(C)(C)c1ccc(-c2c3cccc4c(-c5ccccc5)cc5c(-c6ccc(C(C)(C)C)cc6)c6cccc7c(-c8ccccc8)cc2c(c76)c5c43)cc1
photoluminescence quantum yield (in ClCCl): 0.26

Cc1cc2ccccc2c2c1c1ccccc1n2C(=O)OC(C)(C)C
photoluminescence quantum yield (in ClCCl): 0.185

CC1=c2c3c4cccc5cccc(c=3c(C)[n+]2[B-](F)(F)n2c(C)c3c(c21)-c1cccc2cccc-3c12)c54
photoluminescence quantum yield (in ClC(Cl)Cl): 0

CCOC(=O)c1c2c3c(ccc(Cl)c3c3cc4c(cc13)[Si](C)(C)O[Si]4(C)C)N(C)C2=O
photoluminescence quantum yield (in CC#N): 0.45

C(=C1c2ccccc2CCc2ccccc21)c1ccc(C=C2c3ccccc3CCc3ccccc32)cc1
photoluminescence quantum yield (in C1CCOC1): 0.001

O=Cc1ccc(C#CC(C#Cc2ccc(C=O)o2)=Cc2ccc(C=C(C#Cc3ccc(C=O)o3)C#Cc3ccc(C=O)o3)cc2)o1
photoluminescence quantum yield (in ClC(Cl)Cl): 0.11

CCCCC(CC)COc1ccc2nc(-c3ccc(-c4ccc(OC)cc4)s3)sc2c1 (stereo not given)
photoluminescence quantum yield (in ClCCl): 0.83

COc1ccc2cc(-c3cc4ccc(OC)cc4oc3=O)oc2c1
photoluminescence quantum yield (in CS(C)=O): 0.75

Oc1ccc(-c2ccco2)cc1-c1nc2ccccc2s1
photoluminescence quantum yield (in CCO): 0.0588
photoluminescence quantum yield (in ClCCl): 0.0292
photoluminescence quantum yield (in O): 0.07

COC(=O)/C(C#N)=c1\s/c(=c2/s/c(=C(/C#N)C(=O)OC)c3cc(-c4ccc(C)cc4)sc23)c2sc(-c3ccc(C)cc3)cc12
photoluminescence quantum yield (in Cc1ccccc1): 0.325

O=c1c2cccc3cccc(c32)c2nc3c4ccccc4c4ccccc4c3n12
photoluminescence quantum yield (in ClCCl): 0.15

Cc1c(C)n2c(COC(=O)c3ccccc3O)c(C)c(=O)n2c1=O
photoluminescence quantum yield (in CCO): 0.641

Cc1cc(C)c(C2=C3C=C(c4ccccc4)C(c4ccccc4)=[N+]3[B-](F)(F)n3c2cc(-c2ccccc2)c3-c2ccccc2)c(C)c1
photoluminescence quantum yield (in C1CCCCC1): 0.94
photoluminescence quantum yield (in C1CCOC1): 0.9
photoluminescence quantum yield (in CC#N): 0.87
photoluminescence quantum yield (in Cc1ccccc1): 0.75
photoluminescence quantum yield (in ClCCl): 0.74

CN1/C(=C\C=C\C2=C3C=CC(c4ccccc4)=[N+]3[B-](F)(F)n3c2ccc3-c2ccccc2)Sc2ccccc21
photoluminescence quantum yield (in CC#N): 0.1

Cc1ccc(-c2cc(/C=C/c3ccc(N(c4ccccc4)c4ccccc4)cc3)c(-c3ccc(C)cc3)cc2/C=C/c2ccc(N(c3ccccc3)c3ccccc3)cc2)cc1
photoluminescence quantum yield (in ClCCl): 0.74

CC(C)(C)c1ccc(C(C)(C)C)c(N2C(=O)c3cccc4c(-c5ccc(-c6ccc(N(c7ccccc7)c7ccccc7)cc6)s5)ccc(c34)C2=O)c1
photoluminescence quantum yield (in Cc1ccccc1): 0.56

CC(C)(C)c1ccc(-c2cc(-c3ccc(-c4cc(-c5ccc(C(C)(C)C)cc5)c(C(=O)NCc5cccs5)s4)s3)sc2C(=O)NCc2cccs2)cc1
photoluminescence quantum yield (in ClCCl): 0.33

CCCCN(CCCC)c1ccc(C#Cc2cc(C#Cc3cc(C(F)(F)F)cc(C(F)(F)F)c3)c(C#Cc3ccc(N(CCCC)CCCC)cc3)cc2C#Cc2cc(C(F)(F)F)cc(C(F)(F)F)c2)cc1
photoluminescence quantum yield (in ClCCl): 0.25

COC(=O)COc1ccc(/C=C/C2=[N+]3C(=C(c4ccc(N5CCCCC5)cc4)c4c(C)cc(C)n4[B-]3(F)F)C(C)=C2)cc1
photoluminescence quantum yield (in CO): 0.87

Nc1cccc2cc3ccccc3cc12
photoluminescence quantum yield (in C1CCCCC1): 0.8

COc1ccc(-c2sc3c(-c4ccc(OC)cc4)c4n(c3c2-c2ccc(OC)cc2)[B-](F)(F)[N+]2=Cc3c(-c5ccc(OC)cc5)c5sc(-c6ccc(OC)cc6)c(-c6ccc(OC)cc6)c5n3[B-](F)(F)[N+]2=C4)cc1
photoluminescence quantum yield (in CC#N): 0.36
photoluminescence quantum yield (in CCCCCC): 0.46
photoluminescence quantum yield (in CN(C)C=O): 0.32
photoluminescence quantum yield (in Cc1ccccc1): 0.51
photoluminescence quantum yield (in ClCCl): 0.5

F[B-]1(F)OC(c2ccc(C(F)(F)F)cc2)=Cc2ccc3ccccc3[n+]21
photoluminescence quantum yield (in ClC(Cl)Cl): 0.37

CCN(CC)c1ccc2c(c1)oc(=O)c1c(C)nc3c(c(C)nn3-c3ccccc3)c12
photoluminescence quantum yield (in C1CCCCC1): 0.852
photoluminescence quantum yield (in CCOC(C)=O): 0.733
photoluminescence quantum yield (in CN(C)C=O): 0.562
photoluminescence quantum yield (in CO): 0.428
photoluminescence quantum yield (in ClCCl): 0.827

CCCCN1C(=O)c2cccc3cccc(c23)C1=O
photoluminescence quantum yield (in Cc1ccccc1): 0.04

C[Si](C)(c1cccc2ccccc12)[Si](C)(C)c1c2ccccc2cc2ccccc12
photoluminescence quantum yield (in C1CCCCC1): 0.67
photoluminescence quantum yield (in CC#N): 0.21

COc1cccc(-c2c3ccccc3c3n2[B-](F)(F)[N+]2=Cc4c5ccccc5c(-c5cccc(OC)c5)n4[B-](F)(F)[N+]2=C3)c1
photoluminescence quantum yield (in CC#N): 0.24
photoluminescence quantum yield (in CCCCCC): 0.34
photoluminescence quantum yield (in CN(C)C=O): 0.27
photoluminescence quantum yield (in Cc1ccccc1): 0.34
photoluminescence quantum yield (in ClCCl): 0.36

c1ccc(N(c2ccccc2)c2ccc(-c3nc(-c4ccc(N(c5ccccc5)c5ccccc5)cc4)c4ccccc4n3)cc2)cc1
photoluminescence quantum yield (in ClCCl): 0.3

Cc1cc(-c2nnc(-c3ccccc3)o2)ccc1-n1c2ccccc2c2ccccc21
photoluminescence quantum yield (in Cc1ccccc1): 0.56

C(=C(c1ccccc1)c1ccccc1)c1ccc(-c2cc(-c3ccc(C=C(c4ccccc4)c4ccccc4)cc3)cc(-c3ccc(C=C(c4ccccc4)c4ccccc4)cc3)c2)cc1
photoluminescence quantum yield (in C1CCOC1): 0.0045

CN(C)c1ccc2c(c1)-c1ccccc1C2=O
photoluminescence quantum yield (in C1CCCCC1): 0.14
photoluminescence quantum yield (in CC#N): 0.083
photoluminescence quantum yield (in CCO): 0.0081
photoluminescence quantum yield (in c1ccccc1): 0.23

S=c1[nH]nc(-c2ccc(/C=C/c3ccc(-c4n[nH]c(=S)o4)cc3)cc2)o1
photoluminescence quantum yield (in CN(C)C=O): 0.33

Cc1cc(C)c(B(c2ccccc2-n2c3ccccc3c3ccccc32)c2c(C)cc(C)cc2C)c(C)c1
photoluminescence quantum yield (in Cc1ccccc1): 0.79

c1ccc(-c2nc(-c3ccccc3)nc(-c3ccc(N4c5ccccc5C5(c6ccccc64)c4ccccc4N(c4ccc(-c6nc(-c7ccccc7)nc(-c7ccccc7)n6)cc4)c4ccccc45)cc3)n2)cc1
photoluminescence quantum yield [1]: 0.79

Cc1ccc(N2C(c3ccccc3NS(=O)(=O)c3ccc(C)cc3)=NC(c3ccccc3)C2c2ccccc2)cc1 (stereo not given)
photoluminescence quantum yield (in Cc1ccccc1): 0.004

CC1=CC(C)=[N+]2C1=C(c1ccc(I)cc1)c1c(C)cc(C)n1[B-]2(F)F
photoluminescence quantum yield (in ClC(Cl)Cl): 0.57

Cc1cc(C)c(B(c2ccc(N3c4ccccc4C(C)(C)c4ccccc43)cc2)c2c(C)cc(C)cc2C)c(C)c1
photoluminescence quantum yield (in Cc1ccccc1): 0.89

O=S(=O)(c1ccccc1)c1ccc(-n2c3ccccc3c3c2c2ccccc2n3-c2ccccc2)cc1
photoluminescence quantum yield (in Cc1ccccc1): 0.195

CCCCN1C(=S)c2cccc3cccc(c23)C1=S
photoluminescence quantum yield (in Cc1ccccc1): 0.01

CCCCOc1cc2ccccc2c2c1oc1cc3ccccc3cc12
photoluminescence quantum yield (in C1CCOC1): 0.63

CC1(C)c2ccccc2N2c3ccccc3C3(c4cc(C#N)ccc4-c4ccc(C#N)cc43)c3cccc1c32
photoluminescence quantum yield (in Cc1ccccc1): 0.71

COc1ccc(C2=C(c3ccc(OC)cc3)C(c3ccccc3)=[N+]3C2=Nc2c(-c4ccc(OC)cc4)c(-c4ccc(OC)cc4)c(-c4ccccc4)n2[B-]3(F)F)cc1
photoluminescence quantum yield (in Cc1ccccc1): 0.01

Cc1ccc(-c2cnc3nn4ccccc4c3c2)cc1
photoluminescence quantum yield (in C1CCOC1): 0.29

CCC1(CC)c2cc(/C=C/c3ccc(N(c4ccccc4)c4ccccc4)cc3)ccc2-c2ccc(/C=C/c3ccc(N(c4ccccc4)c4ccccc4)cc3)cc21
photoluminescence quantum yield (in Cc1ccccc1): 0.84

COC(=O)C(Cc1ccc2oc(-c3ccc(N(c4ccccc4)c4ccccc4)cc3)nc2c1)NC(=O)OC(C)(C)C (stereo not given)
photoluminescence quantum yield (in C1CCCCC1): 0.87
photoluminescence quantum yield (in C1CCOC1): 0.77
photoluminescence quantum yield (in C1COCCO1): 0.47
photoluminescence quantum yield (in CC1CCCCC1): 0.94
photoluminescence quantum yield (in CC1COC(=O)O1): 0.67
photoluminescence quantum yield (in CC#N): 0.62
photoluminescence quantum yield (in CC(C)=O): 0.68
photoluminescence quantum yield (in CC(C)O): 0.77
photoluminescence quantum yield (in CC(O)CO): 0.63
photoluminescence quantum yield (in CCCCCC): 0.98
photoluminescence quantum yield (in CCCCCCCC): 0.99
photoluminescence quantum yield (in CCCCCO): 0.76
photoluminescence quantum yield (in CCCCO): 0.87
photoluminescence quantum yield (in CCO): 0.61
photoluminescence quantum yield (in CCOC(C)=O): 0.8
photoluminescence quantum yield (in CN(C)C=O): 0.72
photoluminescence quantum yield (in CO): 0.42
photoluminescence quantum yield (in COCCOC): 0.44
photoluminescence quantum yield (in CS(C)=O): 0.69
photoluminescence quantum yield (in ClC(Cl)Cl): 0.88
photoluminescence quantum yield (in ClCCl): 0.87
photoluminescence quantum yield (in N#Cc1ccccc1): 0.26
photoluminescence quantum yield (in NC=O): 0.35
photoluminescence quantum yield (in O): 0.003
photoluminescence quantum yield (in OCC(F)(F)F): 0.05

CC1=CC(c2ccc3cc(N(C)C)ccc3c2)=[O+][B-](F)(F)O1
photoluminescence quantum yield (in C1CCOC1): 0.91
photoluminescence quantum yield (in CC#N): 0.14
photoluminescence quantum yield (in CC(C)=O): 0.53
photoluminescence quantum yield (in CS(C)=O): 0.22
photoluminescence quantum yield (in Cc1ccccc1): 0.93
photoluminescence quantum yield (in ClC(Cl)Cl): 0.97
photoluminescence quantum yield (in ClCCl): 0.99

Cc1cccc(-c2nc3sc4ccccc4c3s2)c1
photoluminescence quantum yield (in CS(C)=O): 0.84
